Assays:
Assay type in all cases: biochemical
EGFR = EGFR (Homo sapiens, UniProt P00533); assay: Inhibition of a panel of kinases, in vitro HotSpot kinase assay: EGFR
Method: (§1) The degree of inhibition of a panel of kinases is determined using the in vitro HotSpot kinase assay (purified enzymes, ^33P-ATP, an appropriate substrate and 1 uM ATP).

Btk = Btk (Homo sapiens, UniProt Q06187); assay: Btk kinase activity, TR-FRET assay; details: read-out: Btk (IC50)
How it was run: (§2)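 Enzyme (Btk 0.5 nM; Lck 6 nM) reacted 1 h with inhibitor, ATP at Km and biotin-peptide substrate in pH 7.4 buffer, 10% DMSO. Phosphopeptide detected by Eu-p-Tyr100 antibody plus streptavidin-APC (665/615 nm). IC50 calculated from fitted Ki(app) via ATP/Km correction plus half total enzyme.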

JAK3 = biological target: T1, JAK3 (Homo sapiens, UniProt P52333); assay: Inhibition of a panel of kinases, in vitro HotSpot kinase assay: JAK3
T1 sequence (P52333 1-1124): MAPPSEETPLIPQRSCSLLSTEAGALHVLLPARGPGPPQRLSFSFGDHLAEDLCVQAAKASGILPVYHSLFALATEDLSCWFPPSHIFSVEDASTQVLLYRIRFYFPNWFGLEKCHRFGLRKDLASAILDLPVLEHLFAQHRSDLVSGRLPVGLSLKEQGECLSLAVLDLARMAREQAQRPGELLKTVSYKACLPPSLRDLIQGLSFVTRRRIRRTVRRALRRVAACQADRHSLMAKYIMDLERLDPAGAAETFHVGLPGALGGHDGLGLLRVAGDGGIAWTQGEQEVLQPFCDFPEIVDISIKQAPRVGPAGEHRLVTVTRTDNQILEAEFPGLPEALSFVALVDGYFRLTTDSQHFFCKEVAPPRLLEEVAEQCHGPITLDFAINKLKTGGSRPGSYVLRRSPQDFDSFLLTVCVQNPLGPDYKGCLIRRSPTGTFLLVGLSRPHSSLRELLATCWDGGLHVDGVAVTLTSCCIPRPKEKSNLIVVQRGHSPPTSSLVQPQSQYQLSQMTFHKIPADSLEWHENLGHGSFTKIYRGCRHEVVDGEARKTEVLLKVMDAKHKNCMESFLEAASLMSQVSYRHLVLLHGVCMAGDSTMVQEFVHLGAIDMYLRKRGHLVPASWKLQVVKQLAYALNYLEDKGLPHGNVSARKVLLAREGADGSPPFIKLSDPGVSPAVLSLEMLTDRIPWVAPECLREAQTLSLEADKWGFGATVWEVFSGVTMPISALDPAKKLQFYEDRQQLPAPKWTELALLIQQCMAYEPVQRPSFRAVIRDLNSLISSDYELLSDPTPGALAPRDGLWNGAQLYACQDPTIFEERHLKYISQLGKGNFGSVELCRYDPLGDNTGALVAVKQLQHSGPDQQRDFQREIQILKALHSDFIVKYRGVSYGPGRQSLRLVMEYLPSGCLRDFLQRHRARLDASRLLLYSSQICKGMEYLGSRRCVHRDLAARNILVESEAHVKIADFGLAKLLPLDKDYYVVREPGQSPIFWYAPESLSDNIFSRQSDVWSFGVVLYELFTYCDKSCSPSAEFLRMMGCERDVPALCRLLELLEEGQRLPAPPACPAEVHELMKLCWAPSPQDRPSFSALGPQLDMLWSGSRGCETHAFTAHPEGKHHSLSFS
Method: as §1

Lck = Lck (Homo sapiens, UniProt P06239); assay: Lck kinase activity, TR-FRET assay; details: read-out: LCK (IC50)
Lck, sequence (P06239 whole entry, species assumed): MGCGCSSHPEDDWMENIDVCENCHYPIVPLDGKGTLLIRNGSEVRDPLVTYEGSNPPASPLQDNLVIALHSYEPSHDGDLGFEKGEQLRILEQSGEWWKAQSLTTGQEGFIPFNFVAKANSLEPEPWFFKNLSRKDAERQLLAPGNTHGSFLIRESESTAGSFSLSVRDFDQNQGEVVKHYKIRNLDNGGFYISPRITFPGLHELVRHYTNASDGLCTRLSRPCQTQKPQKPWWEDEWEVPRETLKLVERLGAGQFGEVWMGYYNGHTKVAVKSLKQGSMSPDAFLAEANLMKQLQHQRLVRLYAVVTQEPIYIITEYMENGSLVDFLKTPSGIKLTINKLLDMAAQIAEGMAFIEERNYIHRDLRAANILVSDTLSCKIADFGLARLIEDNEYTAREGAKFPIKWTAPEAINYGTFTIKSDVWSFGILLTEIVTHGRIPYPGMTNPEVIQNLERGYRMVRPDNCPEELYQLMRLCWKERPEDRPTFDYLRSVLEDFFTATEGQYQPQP
How it was run: as §2

Btk, sequence (Q06187 whole entry): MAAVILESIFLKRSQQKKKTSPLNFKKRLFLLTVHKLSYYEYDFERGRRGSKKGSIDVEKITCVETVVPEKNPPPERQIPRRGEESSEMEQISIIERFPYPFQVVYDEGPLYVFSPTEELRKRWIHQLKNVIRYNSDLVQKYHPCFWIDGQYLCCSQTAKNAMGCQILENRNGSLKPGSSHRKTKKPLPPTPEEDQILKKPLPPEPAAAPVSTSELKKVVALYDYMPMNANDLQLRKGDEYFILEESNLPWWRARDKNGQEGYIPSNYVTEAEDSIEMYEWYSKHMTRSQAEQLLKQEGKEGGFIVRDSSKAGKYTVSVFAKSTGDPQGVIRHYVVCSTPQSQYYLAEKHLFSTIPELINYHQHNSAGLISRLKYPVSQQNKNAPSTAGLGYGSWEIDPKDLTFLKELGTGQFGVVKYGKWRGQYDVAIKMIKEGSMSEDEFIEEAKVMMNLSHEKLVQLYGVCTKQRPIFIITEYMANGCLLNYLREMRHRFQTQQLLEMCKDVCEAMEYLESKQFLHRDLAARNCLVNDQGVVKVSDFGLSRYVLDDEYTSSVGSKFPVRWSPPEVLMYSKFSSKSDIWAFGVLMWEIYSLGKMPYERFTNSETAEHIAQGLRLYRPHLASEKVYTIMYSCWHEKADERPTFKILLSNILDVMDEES
EGFR, sequence (P00533 25-1210): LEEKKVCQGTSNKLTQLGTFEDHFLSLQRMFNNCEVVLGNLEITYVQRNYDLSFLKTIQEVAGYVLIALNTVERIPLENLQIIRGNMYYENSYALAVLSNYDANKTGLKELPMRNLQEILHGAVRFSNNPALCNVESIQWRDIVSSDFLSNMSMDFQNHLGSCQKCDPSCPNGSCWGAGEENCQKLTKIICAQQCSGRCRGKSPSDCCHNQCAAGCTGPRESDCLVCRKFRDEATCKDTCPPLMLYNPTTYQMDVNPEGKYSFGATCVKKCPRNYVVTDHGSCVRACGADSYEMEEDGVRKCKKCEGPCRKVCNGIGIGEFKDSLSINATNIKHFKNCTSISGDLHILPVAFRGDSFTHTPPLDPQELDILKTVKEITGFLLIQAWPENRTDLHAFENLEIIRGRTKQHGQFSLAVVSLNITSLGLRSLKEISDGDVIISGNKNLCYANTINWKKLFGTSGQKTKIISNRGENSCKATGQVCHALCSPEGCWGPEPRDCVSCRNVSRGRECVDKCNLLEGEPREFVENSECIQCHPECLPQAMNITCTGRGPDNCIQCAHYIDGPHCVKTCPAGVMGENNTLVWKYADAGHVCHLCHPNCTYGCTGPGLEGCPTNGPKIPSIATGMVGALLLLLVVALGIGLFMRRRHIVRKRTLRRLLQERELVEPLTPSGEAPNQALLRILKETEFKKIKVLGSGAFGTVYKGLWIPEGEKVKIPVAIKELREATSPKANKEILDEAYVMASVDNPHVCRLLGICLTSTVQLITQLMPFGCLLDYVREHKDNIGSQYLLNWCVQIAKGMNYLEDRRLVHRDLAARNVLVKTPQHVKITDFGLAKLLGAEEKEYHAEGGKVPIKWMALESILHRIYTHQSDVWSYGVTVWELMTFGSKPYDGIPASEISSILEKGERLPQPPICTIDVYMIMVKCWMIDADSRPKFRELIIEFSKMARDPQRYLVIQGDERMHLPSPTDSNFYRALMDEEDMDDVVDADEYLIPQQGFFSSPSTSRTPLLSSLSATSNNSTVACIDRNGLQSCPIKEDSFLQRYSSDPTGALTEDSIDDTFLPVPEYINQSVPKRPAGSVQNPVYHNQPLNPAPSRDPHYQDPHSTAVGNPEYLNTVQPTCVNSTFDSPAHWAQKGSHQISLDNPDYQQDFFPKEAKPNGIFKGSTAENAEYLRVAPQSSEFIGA

SMILES	IC50 (EGFR)	IC50 (Btk)	IC50 (JAK3)	IC50 (Lck)
CCNC(=O)N1CC[C@@H](Nc2n[nH]c3nccc(Oc4ccc(C(=O)Nc5cc(C(F)(F)F)ccn5)cc4)c23)C1 [compound 188]	1 to 10 µM	< 0.1 µM	> 10 µM	0.1 to 1 µM
C=CC(=O)N1CC[C@@H](Nc2n[nH]c3nccc(Oc4ccc(Cl)cc4)c23)C1 [compound 1]	0.1 to 1 µM	< 0.1 µM	1 to 10 µM	1 to 10 µM
Cc1ccnc(NC(=O)c2ccc(Oc3ccnc4[nH]nc(N[C@@H]5CCCN(C(=O)c6ccccc6)C5)c34)cc2)c1 [compound 109, 4-[(3-{[(3R)-1-benzoylpiperidin-3-yl]amino}-1H-pyrazolo[3,4-b]pyridin-4-yl)oxy]-N-(4-methylpyridin-2-yl)benzamide]	> 10 µM	< 0.1 µM	> 10 µM	1 to 10 µM
O=C(Nc1ccccn1)c1ccc(Oc2ccnc3[nH]nc(N[C@@H]4CCCN(C(=O)C5CC5)C4)c23)cc1 [compound 232, 4-[(3-{[(3R)-1-cyclopropanecarbonylpiperidin-3-yl]amino}-1H-pyrazolo[3,4-b]pyridin-4-yl)oxy]-N-(pyridin-2-yl)benzamide]	1 to 10 µM	< 0.1 µM	> 10 µM	> 10 µM
C=CC(=O)N1CCC[C@@H](Nc2n[nH]c3nccc(Oc4cccc(C(=O)Nc5ccc(C(C)C)c(C)c5)c4)c23)C1 [compound 250, (R)-3-(3-(1-acryloylpiperidin-3-ylamino)-1H-pyrazolo[3,4-b]pyridin-4-yloxy)-N-(4-isopropyl-3-methylphenyl)benzamide]	< 0.1 µM	< 0.1 µM	< 0.1 µM	< 0.1 µM
CN(C)CCCC(=O)N1CCC[C@@H](Nc2n[nH]c3nccc(Oc4ccc(C(=O)Nc5cc(C(F)(F)F)ccn5)cc4)c23)C1 [compound 161]	0.1 to 1 µM	< 0.1 µM	> 10 µM	< 0.1 µM
C=CC(=O)N1CCC[C@@H](Nc2n[nH]c3nccc(Oc4ccc(C(=O)Nc5nc(C)c(C)s5)cc4)c23)C1 [compound 146]	0.1 to 1 µM	< 0.1 µM	< 0.1 µM	0.1 to 1 µM
Cc1ccnc(NC(=O)c2ccc(Oc3ccnc4[nH]nc(N[C@@H]5CCCN(C#N)C5)c34)cc2)c1 [compound 276, (R)-4-(3-(1-cyanopiperidin-3-ylamino)-1H-pyrazolo[3,4-b]pyridin-4-yloxy)-N-(4-methylpyridin-2-yl)benzamide]	1 to 10 µM	< 0.1 µM	> 10 µM	0.1 to 1 µM
CN(C/C=C/C(=O)N1CCC[C@@H](Nc2n[nH]c3nccc(Oc4ccc(C(=O)Nc5nc6ccccc6s5)cc4)c23)C1)C1CC1 [compound 167]	1 to 10 µM	< 0.1 µM	1 to 10 µM	0.1 to 1 µM
C=CC(=O)N1CCCC(Nc2n[nH]c3nccc(Oc4ccc(-c5ccc(C(F)(F)F)cn5)cc4)c23)C1 (stereo in doubt) [compound 196, 1-[(3S)-3-[(4-{4-[5-(trifluoromethyl)pyridin-2-yl]phenoxy}-1H-pyrazolo[3,4-b]pyridin-3-yl)amino]piperidin-1-yl]prop-2-en-1-one]	1 to 10 µM	0.1 to 1 µM	0.1 to 1 µM	> 10 µM
Cc1ccnc(NC(=O)c2ccc(Oc3ccnc4[nH]nc(N[C@@H]5CCCN(C(=O)C(N)=O)C5)c34)cc2)c1 [compound 270, (R)-4-(3-(1-(2-amino-2-oxoacetyl)piperidin-3-ylamino)-1H-pyrazolo[3,4-b]pyridin-4-yloxy)-N-(4-methylpyridin-2-yl)benzamide]	0.1 to 1 µM	< 0.1 µM	> 10 µM	0.1 to 1 µM
C=CC(=O)N1CC[C@@H](Nc2n[nH]c3nccc(Oc4cccc(C(=O)Nc5ccc(C(C)C)c(C)c5)c4)c23)C1 [compound 122, N-[3-methyl-4-(propan-2-yl)phenyl]-3-[(3-{[(3R)-1-(prop-2-enoyl)pyrrolidin-3-yl]amino}-1H-pyrazolo[3,4-b]pyridin-4-yl)oxy]benzamide]	0.1 to 1 µM	< 0.1 µM	< 0.1 µM	< 0.1 µM
Cc1ccnc(NC(=O)c2ccc(Oc3ccnc4[nH]nc(N[C@@H]5CCCN(C(=O)C6CCNCC6)C5)c34)cc2)c1 [compound 96, N-(4-methylpyridin-2-yl)-4-[(3-{[(3R)-1-(piperidin-4-carbonyl)piperidin-3-yl]amino}-1H-pyrazolo[3,4-b]pyridin-4-yl)oxy]benzamide]	1 to 10 µM	< 0.1 µM	> 10 µM	0.1 to 1 µM

Other lines, results leading:

IC50 (EGFR)	IC50 (Btk)	IC50 (JAK3)	IC50 (Lck)	SMILES
> 10 µM	< 0.1 µM	1 to 10 µM	> 10 µM	Cc1ccnc(NC(=O)c2ccc(Oc3ccnc4[nH]nc(N[C@@H]5CCCN(C(=O)[C@@H]6CCCO6)C5)c34)cc2)c1 [compound 117, N-(4-methylpyridin-2-yl)-4-[(3-{[(3R)-1-[(2S)-oxolane-2-carbonyl]piperidin-3-yl]amino}-1H-pyrazolo[3,4-b]pyridin-4-yl)oxy]benzamide]
> 10 µM	0.1 to 1 µM	> 10 µM	< 0.1 µM	Cc1cc(NC(=O)c2cccc(Oc3ccnc4[nH]nc(N[C@H]5CCN(C(=O)c6ccc(F)cc6)C5)c34)c2)ccc1C(C)C [compound 128, 3-[(3-{[(3S)-1-(4-fluorobenzoyl)pyrrolidin-3-yl]amino}-1H-pyrazolo[3,4-b]pyridin-4-yl)oxy]-N-[3-methyl-4-(propan-2-yl)phenyl]benzamide]
1 to 10 µM	< 0.1 µM	> 10 µM	0.1 to 1 µM	Cc1ccnc(NC(=O)c2ccc(Oc3ccnc4[nH]nc(N[C@@H]5CCCN(C(=O)[C@H]6CCOC6)C5)c34)cc2)c1 [compound 116, N-(4-methylpyridin-2-yl)-4-[(3-{[(3R)-1-[(3S)-oxolane-3-carbonyl]piperidin-3-yl]amino}-1H-pyrazolo[3,4-b]pyridin-4-yl)oxy]benzamide]
1 to 10 µM	0.1 to 1 µM	0.1 to 1 µM	< 0.1 µM	C=CC(=O)N1CC[C@H](Nc2n[nH]c3nccc(Oc4cccc(C(=O)Nc5ccc(C(C)C)c(C)c5)c4)c23)C1 [compound 126, N-[3-methyl-4-(propan-2-yl)phenyl]-3-[(3-{[(3S)-1-(prop-2-enoyl)pyrrolidin-3-yl]amino}-1H-pyrazolo[3,4-b]pyridin-4-yl)oxy]benzamide]
< 0.1 µM	< 0.1 µM	0.1 to 1 µM	0.1 to 1 µM	C=CC(=O)N1CCC[C@@H](Nc2n[nH]c3nccc(Oc4ccc(C(=O)Nc5cc(C(F)(F)F)ccn5)cc4)c23)C1 [compound 203, 4-[(3-{[(3R)-1-(prop-2-enoyl)piperidin-3-yl]amino}-1H-pyrazoo[3,4-b]pyridin-4-yl)oxy]-N-[4-(trifluoromethyl)pyridin-2-yl]benzamide]
> 10 µM	< 0.1 µM	1 to 10 µM	1 to 10 µM	CC#CC(=O)N1CCC[C@@H](Nc2n[nH]c3nccc(Oc4ccc(C(=O)Nc5ncc(C)s5)cc4)c23)C1 [compound 141]
0.1 to 1 µM	< 0.1 µM	0.1 to 1 µM	0.1 to 1 µM	CN(C)C/C=C/C(=O)N(C)[C@H]1CC[C@@H](Nc2n[nH]c3nccc(Oc4cccc(Oc5ccccc5)c4)c23)CC1 [compound 21, (2E)-4-(dimethylamino)-N-methyl-N-[(1s,4s)-4-{[4-(3-phenoxyphenoxy)-1H-pyrazolo[3,4-b]pyridin-3-yl]amino}cyclohexyl]but-2-enamide]
< 0.1 µM	< 0.1 µM	< 0.1 µM	0.1 to 1 µM	C=CC(=O)N1CCC[C@@H](Nc2n[nH]c3nccc(Oc4cccc(C(=O)Nc5cc(C(F)(F)F)ccn5)c4)c23)C1 [compound 191]

Reference: patent US9580416B2, “Inhibitors of Bruton's tyrosine kinase” (PHARMACYCLICS LLC, priority 2014, dated 2017)
